According to patent US12091426B2, “Bifunctional degraders of hematopoietic progenitor kinase and therapeutic uses thereof” (Nurix Therapeutics, Inc., priority 2021, dated 2024):

Target: T1, HPK1 (Homo sapiens, UniProt Q92918)
T1 construct: A HiBiT tag was introduced by CRISPR on the N terminus of HPK1 in Jurkat cells; host or cells: Jurkat cells (ATCC TIB-152), monoclonal line with CRISPR knock-in of HiBiT at the endogenous HPK1 locus
Experiment: HPK1 Cellular HiBit Degradation Assay
Type: cell-based
Settings: HiBiT HPK1 Jurkat cells, 24 hrs; for DC50: concentration at which 50% of HPK1 was remaining, read-out: DC50 Category; for Dmax: Jurkat, maximum degradation vs DMSO vehicle control, read-out: Dmax Category
Summary of the method: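 HiBiT-HPK1 Jurkat (CRISPR, N-term tag), 3×10^4 cells/well, RPMI 1640 + 10% FBS; CTMs 10 uM–0.1 nM, 11 pts; 24 hrs, 37° C/5% CO2; lytic HiBiT luminescence; % remaining vs DMSO, parental background subtracted; 4-parameter fit → DC50, Dmax.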

T1 sequence (Q92918 whole entry): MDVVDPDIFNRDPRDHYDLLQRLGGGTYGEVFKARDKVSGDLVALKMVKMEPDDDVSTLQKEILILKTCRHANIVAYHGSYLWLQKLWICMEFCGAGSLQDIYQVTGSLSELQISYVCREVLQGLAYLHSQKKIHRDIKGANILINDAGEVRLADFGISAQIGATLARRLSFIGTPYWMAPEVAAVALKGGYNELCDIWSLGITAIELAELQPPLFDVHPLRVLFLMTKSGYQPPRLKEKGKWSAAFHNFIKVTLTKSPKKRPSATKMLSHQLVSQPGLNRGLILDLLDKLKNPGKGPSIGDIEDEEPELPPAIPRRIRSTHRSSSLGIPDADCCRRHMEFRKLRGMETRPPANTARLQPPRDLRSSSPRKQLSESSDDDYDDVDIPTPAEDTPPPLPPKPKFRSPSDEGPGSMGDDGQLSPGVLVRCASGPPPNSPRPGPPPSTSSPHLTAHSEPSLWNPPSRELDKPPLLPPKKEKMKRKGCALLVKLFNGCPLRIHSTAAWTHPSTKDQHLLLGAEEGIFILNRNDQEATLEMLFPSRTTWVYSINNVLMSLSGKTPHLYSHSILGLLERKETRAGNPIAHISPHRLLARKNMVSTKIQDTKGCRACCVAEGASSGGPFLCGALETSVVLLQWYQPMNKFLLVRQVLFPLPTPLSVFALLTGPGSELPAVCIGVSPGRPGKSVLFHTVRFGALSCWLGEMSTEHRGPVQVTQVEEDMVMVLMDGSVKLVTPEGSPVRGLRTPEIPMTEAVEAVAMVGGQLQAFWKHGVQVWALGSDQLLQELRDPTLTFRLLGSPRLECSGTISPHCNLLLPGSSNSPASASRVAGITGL

Structure (SMILES)	DC50	Dmax
CC(C)n1cnc2cc(-c3ccc4c(c3)N([C@H]3C[C@@H](N5CCCCC5)C3)C(=O)C43CCN(C(=O)C4CCN(C(=O)N5CCC(c6ccc(C7CCC(=O)NC7=O)cn6)CC5)CC4)CC3)nc(Nc3ccccc3F)c21 (mixture of isomers) [Example 97, (3RS)-3-[6-(1-{4-[(6-{4-[(2-fluorophenyl)amino]-3-(propan-2-yl)-3H-imidazo[4,5-c]pyridin-6-yl}-2-oxo-1-[(1S,3S)-3-(piperidin-1-yl)cyclobutyl]-1,2-dihydrospiro[indole-3,4′-piperidin]-1′-yl)carbonyl]piperidine-1-carbonyl}piperidin-4-yl)pyridin-3-yl]piperidine-2,6-dione]	500 to 1000 nM	50 to 70%
CC(C)n1cnc2cc(-c3ccc4c(c3)N([C@H]3C[C@@H](N5CCCCC5)C3)C(=O)C43CCN(C(=O)C4CCN(CCC5CCN(c6ccc(C7CCC(=O)NC7=O)cn6)CC5)CC4)CC3)nc(Nc3ccccc3F)c21 (mixture of isomers) [Example 98, (3RS)-3-{6-[4-(2-{4-[(6-{4-[(2-fluorophenyl)amino]-3-(propan-2-yl)-3H-imidazo[4,5-c]pyridin-6-yl}-2-oxo-1-[(1S,3S)-3-(piperidin-1-yl)cyclobutyl]-1,2-dihydrospiro[indole-3,4′-piperidin]-1′-yl)carbonyl]piperidin-1-yl}ethyl)piperidin-1-yl]pyridin-3-yl}piperidine-2,6-dione]	500 to 1000 nM	> 85%
Cc1cc(F)c(Nc2nc(-c3ccc4c(c3)N([C@H]3C[C@@H](N5CCCCC5)C3)C(=O)C43CCN(C(=O)CC4CCN(C(=O)C5CCN(C(=O)CNc6cccc7c6C(=O)N(C6CCC(=O)NC6=O)C7=O)CC5)CC4)CC3)cc3ncn(C(C)C)c23)cc1C(=O)NC(C)C (mixture of isomers) [Example 99, 5-[(6-{1′-[2-(1-{1-[2-({2-[(3RS)-2,6-dioxopiperidin-3-yl]-1,3-dioxo-2,3-dihydro-1H-isoindol-4-yl}amino)acetyl]piperidine-4-carbonyl}piperidin-4-yl)acetyl]-2-oxo-1-[(1S,3S)-3-(piperidin-1-yl)cyclobutyl]-1,2-dihydrospiro[indole-3,4′-piperidin]-6-yl}-3-(propan-2-yl)-3H-imidazo[4,5-c]pyridin-4-yl)amino]-4-fluoro-2-methyl-N-(propan-2-yl)benzamide]	500 to 1000 nM	50 to 70%
CC(C)n1cnc2cc(-c3ccc4c(c3)N([C@H]3C[C@@H](N5CCCCC5)C3)C(=O)C43CCN(C(=O)c4ccc(C(=O)N5CCN(c6ccc(C7CCC(=O)NC7=O)cn6)C[C@H]5C)cc4)CC3)nc(Nc3ccccc3F)c21 (mixture of isomers) [Example 100, (3RS)-3-{6-[(3R)-4-{4-[(6-{4-[(2-fluorophenyl)amino]-3-(propan-2-yl)-3H-imidazo[4,5-c]pyridin-6-yl}-2-oxo-1-[(1S,3S)-3-(piperidin-1-yl)cyclobutyl]-1,2-dihydrospiro[indole-3,4′-piperidin]-1′-yl)carbonyl]benzoyl}-3-methylpiperazin-1-yl]pyridin-3-yl}piperidine-2,6-dione]	100 to 500 nM	70 to 85%
CC(C)n1cnc2cc(-c3ccc4c(c3)N([C@H]3C[C@@H](N5CCCCC5)C3)C(=O)C43CCN(C(=O)C4(C)CCN(C(=O)[C@H]5CC[C@H](Oc6ccc(C7CCC(=O)NC7=O)cc6)CC5)CC4)CC3)nc(NC3CC3)c21 (mixture of isomers) [Example 101, (3RS)-3-(4-{[(1R,4R)-4-[4-({6-[4-(cyclopropylamino)-3-(propan-2-yl)-3H-imidazo[4,5-c]pyridin-6-yl]-2-oxo-1-[(1S,3S)-3-(piperidin-1-yl)cyclobutyl]-1,2-dihydrospiro[indole-3,4′-piperidin]-1′-yl}carbonyl)-4-methylpiperidine-1-carbonyl]cyclohexyl]oxy}phenyl)piperidine-2,6-dione]	< 100 nM	70 to 85%
CC(C)n1cnc2cc(-c3ccc4c(c3)N([C@H]3C[C@@H](N5CCCCC5)C3)C(=O)C43CCN(C(=O)C4(C)CCN(C(=O)[C@H]5CC[C@H](Oc6ccc(C7CCC(=O)NC7=O)cc6)CC5)CC4)CC3)nc(Nc3ccccc3F)c21 (mixture of isomers) [Example 102, (3RS)-3-(4-{[(1R,4R)-4-{4-[(6-{4-[(2-fluorophenyl)amino]-3-isopropylimidazo[4,5-c]pyridin-6-yl}-2-oxo-1-[(1S,3S)-3-(piperidin-1-yl)cyclobutyl]spiro[indole-3,4′-piperidin]-1′-yl)carbonyl]-4-methylpiperidine-1-carbonyl}cyclohexyl]oxy}phenyl)piperidine-2,6-dione]	< 100 nM	> 85%
CC(C)n1cnc2cc(-c3ccc4c(c3)N([C@H]3C[C@@H](N5CCCCC5)C3)C(=O)C43CCN(C(=O)C4(C)CCN(C(=O)[C@H]5CC[C@H](Oc6ccc(C7CCC(=O)NC7=O)cc6)CC5)CC4)CC3)nc(Nc3ccncc3F)c21 (mixture of isomers) [Example 103, (3RS)-3-(4-{[(1R,4R)-4-{4-[(6-{4-[(3-Fluoropyridin-4-yl)amino]-3-(propan-2-yl)-3H-imidazo[4,5-c]pyridin-6-yl}-2-oxo-1-[(1S,3S)-3-(piperidin-1-yl)cyclobutyl]-1,2-dihydrospiro[indole-3,4′-piperidin]-1′-yl)carbonyl]-4-methylpiperidine-1-carbonyl}cyclohexyl]oxy}phenyl)piperidine-2,6-dione]	< 100 nM	70 to 85%
CC(C)n1cnc2cc(-c3ccc4c(c3)N([C@H]3C[C@@H](N5CCCCC5)C3)C(=O)C43CCN(C(=O)C4(C)CCN(C(=O)[C@H]5CC[C@H](Oc6ccc(C7CCC(=O)NC7=O)cn6)CC5)CC4)CC3)nc(NC3CC3)c21 (mixture of isomers) [Example 104, (3RS)-3-(6-{[(1R,4R)-4-[4-({6-[4-(cyclopropylamino)-3-(propan-2-yl)-3H-imidazo[4,5-c]pyridin-6-yl]-2-oxo-1-[(1S,3S)-3-(piperidin-1-yl)cyclobutyl]-1,2-dihydrospiro[indole-3,4′-piperidin]-1′-yl}carbonyl)-4-methylpiperidine-1-carbonyl]cyclohexyl]oxy}pyridin-3-yl)piperidine-2,6-dione]	< 100 nM	70 to 85%
CC(C)n1cnc2cc(-c3ccc4c(c3)N([C@H]3C[C@@H](N5CCCCC5)C3)C(=O)C43CCN(C(=O)C4(C)CCN(C(=O)[C@H]5CC[C@H](Oc6ccc(C7CCC(=O)NC7=O)cn6)CC5)CC4)CC3)nc(Nc3ccccc3F)c21 (mixture of isomers) [Example 105, (3RS)-3-(6-{1[(1R,4R)-4-{4-[(6-{4-[(2-fluorophenyl)amino]-3-(propan-2-yl)-3H-imidazo[4,5-c]pyridin-6-yl}-2-oxo-1-[(1S,3S)-3-(piperidin-1-yl)cyclobutyl]-1,2-dihydrospiro[indole-3,4′-piperidin]-1′-yl)carbonyl]-4-methylpiperidine-1-carbonyl}cyclohexyl]oxy}pyridin-3-yl)piperidine-2,6-dione]	< 100 nM	> 85%
CC(C)n1cnc2cc(-c3ccc4c(c3)N([C@H]3C[C@@H](N5CCCCC5)C3)C(=O)C43CCN(C(=O)C4(C)CCN(C(=O)[C@H]5CC[C@H](Oc6ccc(C7CCC(=O)NC7=O)cn6)CC5)CC4)CC3)nc(Nc3ccncc3F)c21 (mixture of isomers) [Example 106]	< 100 nM	70 to 85%
CC(C)n1cnc2cc(-c3ccc4c(c3)N([C@H]3C[C@@H](N5CCCCC5)C3)C(=O)C43CCN(C(=O)C4(C)CCN(C(=O)C5CCN(c6ccc(C7CCC(=O)NC7=O)cc6)CC5)CC4)CC3)nc(Nc3ccccc3F)c21 (mixture of isomers) [Example 110, (3RS)-3-[4-(4-{4-[(6-{4-[(2-fluorophenyl)amino]-3-(propan-2-yl)-3H-imidazo[4,5-c]pyridin-6-yl}-2-oxo-1-[(1S,3S)-3-(piperidin-1-yl)cyclobutyl]-1,2-dihydrospiro[indole-3,4′-piperidin]-1′-yl)carbonyl]-4-methylpiperidine-1-carbonyl}piperidin-1-yl)phenyl]piperidine-2,6-dione]	< 100 nM	> 85%
CC(C)n1cnc2cc(-c3ccc4c(c3)N([C@H]3C[C@@H](N5CCCCC5)C3)C(=O)C43CCN(C(=O)C4(C)CCN(C(=O)C5CCN(c6ccc(C7CCC(=O)NC7=O)cc6)CC5)CC4)CC3)nc(NC3CC3)c21 (mixture of isomers) [Example 111, (3RS)-3-(4-{4-[4-({6-[4-(cyclopropylamino)-3-(propan-2-yl)-3H-imidazo[4,5-c]pyridin-6-yl]-2-oxo-1-[(1S,3S)-3-(piperidin-1-yl)cyclobutyl]-1,2-dihydrospiro[indole-3,4′-piperidin]-1′-yl}carbonyl)-4-methylpiperidine-1-carbonyl]piperidin-1-yl}phenyl)piperidine-2,6-dione]	< 100 nM	70 to 85%
CC(C)n1cnc2cc(-c3ccc4c(c3)N([C@H]3C[C@@H](N5CCCCC5)C3)C(=O)C43CCN(C(=O)C4(C)CCN(C(=O)C5CCN(c6ccc(C7CCC(=O)NC7=O)cc6)CC5)CC4)CC3)nc(Nc3ccncc3F)c21 (mixture of isomers) [Example 112, (3RS)-3-[4-(4-{4-[(6-{4-[(3-fluoropyridin-4-yl)amino]-3-(propan-2-yl)-3H-imidazo[4,5-c]pyridin-6-yl}-2-oxo-1-[(1S,3S)-3-(piperidin-1-yl)cyclobutyl]-1,2-dihydrospiro[indole-3,4′-piperidin]-1′-yl)carbonyl]-4-methylpiperidine-1-carbonyl}piperidin-1-yl)phenyl]piperidine-2,6-dione]	< 100 nM	70 to 85%
